Test results reported in patent publication US20190070170A1, “METHOD OF S[…]-1” (Macau University of Science and Technology, priority 2017, published 2019).

How the values were obtained:
[1] = tested on: mPGES-1; experiment: mPGES-1 protein expression in IL-1β-stimulated A549 cells (western blotting); assay type: cell-based; details: IL-1β with SIN or DEX for 48 h
Procedure: RAW264.7 and A549 cell lines were obtained from American Type Culture Collection (ATCC, Manassas, Va., USA) and maintained in DMEM (RAW264.7) or 1640 (A549) medium containing 10% FBS (Gibco-BRL, Grand Island, N.Y., USA) and antibiotics at 37° C. in a humidified atmosphere containing 5% CO2. RAW264.7 cells were plated in 6-well plates at a density of 4×10^5 cells and incubated for 24 h, then the cells were pretreated with different concentrations of SIN for 1 h before stimulating with LPS (100 ng/ml). A549 cells were seeded in 6-well plates at a density of 1×10^5 cells and incubated for 24 h, followed by pretreatment with SIN. A549 cells were then stimulated by IL-1β (1 ng/ml).
Whole-cell and nuclear proteins were obtained using RIPA lysis buffer (CST, Boston, Mass., USA) and Nuclear and Cytoplasmic Extraction Reagents kit from Thermo Scientific (Asheville, N.C., USA), respectively. For immunoblotting, proteins from whole-cell, cytoplasm, nuclear, and microsomal fractions were separated on SDS-PAGE, then transferred onto a nitrocellulose membrane from GE Healthcare Life Sciences (Buckinghamshire, UK), and incubated with 5% skimmed milk at room temperature for 1 h. […] The levels of protein expression were measured using Odyssey v3.0 software from Li-COR (Lincoln, Nebr., USA).

[2] = tested on: carrageenan-induced paw edema; experiment: Carrageenan-induced rat paw edema model; assay type: in vivo, SD rats; details: SIN 25, 50 and 100 mg/kg i.p. 2 h before carrageenan
Procedure: The model of carrageenan-induced paw edema was performed with SD rats (150-200 g). […] Briefly, rats were fasted for 12 h before experiment and intraperitoneal injection was performed with three different doses (25, 50 and 100 mg/kg) of SIN, or DEX (reference drug, 2 mg/kg) or 0.9% saline (Vehicle and Normal group rats), at 2 h prior to the induction of paw edema. Paw edema was induced by subcutaneous injection of 100 μl of 1% (w/v) freshly prepared λ-carrageenan (Sigma, St Louis, Mo., USA) diluted in saline in the right hind foot pad. 100 μl sterile saline was injected to the rats in the right hind paw as normal control. Paw volumes (ml) of right hind foot of each rat were measured using a plethysmometer (type 7150; UGO Basile, Comerio, Italy) at 0 h (before carrageenan injection) and then again at 1, 2, 3 and 4 h after the injection of carrageenan or saline. The percentage of paw edema of the right hind paws of all groups were calculated at different time points by the following equation: Swelling ratio in each time points=(the paw volume after injection−the paw volume before injection)/the paw volume before injection×100

[3] = tested on: CEBPβ (mPGES-1 promoter); experiment: ChIP assay: CEBPβ DNA binding to mPGES-1 promoter in LPS-stimulated rat peritoneal macrophages; assay type: cell-based; details: 640 μM SIN 1 h, 1 μg/ml LPS 30 min
Procedure: Rat peritoneal macrophages were pretreated with 640 μM SIN (1 h) and stimulated with 1 μg/ml LPS (30 min) before fixation at room temperature for 10 min with 1% formaldehyde. Fixation was terminated by adding glycine (to 0.125 M) with an additional incubation of 5 min, then the cells were washed twice with ice-cold PBS and harvested by scraping and centrifugation (1500 rpm for 10 min at 4° C.). Cell lysis was performed using ChIP kit from abcam (Cambridge, UK) according to the manufacturer's instructions. Briefly, cell pellets were resuspended in 1 ml Buffer B by pipetting up and down several times in a microcentrifuge tube and incubated at room temperature for 10 min. After centrifugation at 5000 rpm, the pellet was collected and resuspended in ice cold Buffer C and incubated on ice for 10 min, followed by centrifugation (5,000 rpm for 10 min at 4° C.). The pellet was mixed with 100 μl Buffer D containing protease inhibitors, incubated on ice for 10 min and sonicated for 30 cycles in a Bioruptor UCD-300 sonicator (power on high, 30 s on, 30 s off per cycle), yielding DNA fragments of 150-200 bps (the size of sonicated chromatin was checked through running 2% agarose gel). Beads were blocked overnight in PBS with 0.5% BSA and then added to the samples. […]

[4] = tested on: iNOS; experiment: iNOS protein level in LPS-stimulated rat peritoneal macrophages (immunoblotting); assay type: cell-based; details: pretreatment 1 h, LPS 1 μg/ml 24 h
Procedure: (§1) Sprague-Dawley (SD) rats from the University of Hong Kong were housed in cages with free access to food and water. Peritoneal macrophages of SD rats were isolated as described in Liu J. et al., Pharmacological research 2016, 111:303-315. Briefly, untreated rats were sacrificed and after laparotomy, about 50 ml cold sterile Hank's balanced salt solution (HBSS) was used to lavage the peritoneal cavity at twice, and then the peritoneal lavage fluid was collected and centrifuged at 1500 rpm for 10 min. The cell pellets was suspended at a density 1.5×10^6 cells/ml in pre-hearted DMEM medium with 10% heat-inactivated FBS, penicillin G (100 units/ml), streptomycin ([…]), and L-glutamine (2 mM), followed by seeding in 6-well plates at a density of 4.5×10^6 cells and incubation for 2 h. Then the medium were discarded to remove the non-adherent cells. The adherent cells were further washed for two times with pre-heated DMEM medium to remove floating cells. Next, cells were pre-treated with various concentration of SIN for 1 h, followed by stimulation with LPS (1 μg/ml).
Whole-cell and nuclear proteins were obtained using RIPA lysis buffer (CST, Boston, Mass., USA) and Nuclear and Cytoplasmic Extraction Reagents kit from Thermo Scientific (Asheville, N.C., USA), respectively. […] The levels of protein expression were measured using Odyssey v3.0 software from Li-COR (Lincoln, Nebr., USA).

[5] = tested on: IL-6; experiment: IL-6 level in LPS-stimulated rat peritoneal macrophages (ELISA); assay type: cell-based; details: pretreatment 1 h, LPS 1 μg/ml 24 h
Procedure: as §1
RAW264.7 cells and rat peritoneal macrophages were seeded in a 96-well plate at density of 1.4×10^4 and 1.5×10^5 cells, respectively. […] The optical density was measured at 570 nm against a reference wavelength of 650 nm using a microplate UV/VIS spectrophotometer (Tecan, Mannedorf, Switzerland). […]

## COC1=C[C@@H]2[C@@H]3Cc4ccc(OC)c(O)c4[C@]2(CCN3C)CC1=O [SIN, sinomenine]
[1]
  mPGES-1 protein expression: significantly and dose-dependently inhibited
[2]; at 2, 3 and 4 h
  paw edema (percentage of increase in paw volume): successfully reduced paw edema in a dose dependent manner
[2]; at 1 h
  paw edema (percentage of increase in paw volume): no effects
[3]
  DNA binding of CEBPβ to the mPGES-1 promoter: inhibited
[4]
  iNOS expression: significantly inhibited
[5]
  IL-6 production: significantly inhibited
